The values that follow come from patent US20250213705A1, “PSMA TARGETING LIGANDS AND METHODS OF USE” (Bright Peak Therapeutics AG, priority 2023, published 2025).

In one experiment the target is human FOLH1 (Homo sapiens (Human), UniProt Q04609). Kind of experiment: SPR analysis of binding kinetics to biotinylated FOLH1 (Biacore 8K). The following applies: ligand PSMA; for Kon: association rate; for koff: dissociation rate; for Kd: kinetic 1:1 binding model. The procedure:
The interaction of PSMA-binding variants with human FOLH1 was measured with Surface Plasmon Resonance (SPR) technology. Biotinylated FOLH1 was captured at a concentration of 30 μg/mL onto a Streptavidin chip.
Binding kinetics of the analytes were measured with a Biacore 8K instrument in two-fold serial dilutions starting at 500 nM down to 1.95 nM in single cycle kinetic measurements. After each cycle, needles were washed with 50% DMSO. To measure the association to the FOLH1 protein, the samples were injected with a flow rate of 30 μL/min for 90 s, followed by 1200 s buffer only to detect the dissociation. The used running buffer was 1×PBS with 0.05% Tween20 and 2% DMSO. The relative response units (RU, Y-axis) are plotted against time (s, X-axis) and analyzed in a kinetic 1:1 binding model.
In a different setup, biotinylated FOLH1 was captured at a concentration of 0.8 μg/mL and the running buffer was 1×PBS with 0.05% Tween20.

Experiment [1] addresses Recombinant Human PSMA/FOLH1 Protein (Homo sapiens (Human), UniProt Q04609). Kind of experiment: Inhibition assay (Amplex Red glutamic acid/glutamate oxidase, NAAG substrate). It is filed as biochemical. The following applies: Target PSMA, average of N replicates; for IC50: PSMA 5 nM, NAAG 40 μM; for Ki: calculated based on Cheng-Prusoff equation. The procedure:
Amplex™ Red Glutamic Acid/Glutamate Oxidase Assay Kit Catalog number: A12221 (Thermofisher); Recombinant Human PSMA/FOLH1 Protein, CF (rnd systems); N-Acetyl-Asp-Glu (NAAG) (Sigma Aldrich; 96 well half area plate; Enspire plate reader.
Prepare a working solution of 100 μM Amplex® Red reagent containing 0.25 U/mL HRP, 0.08 U/mL L-glutamate oxidase, 0.5 U/mL 1-glutamate-pyruvate transaminase, 200 μM L-alanine and keep protected from light. […] Final concentration is 5 nM. Transfer 10 μl/well of the inhibitor solution previously prepared in a separate 96 wells/plate.
Pipette 20 μl/well of the working solution prepared above. Incubate the reactions for 30 min at 37° C., protected from light. Because the assay is continuous (not terminated), fluorescence may be measured at multiple time points to follow the kinetics of the reactions. Measure the fluorescence in a fluorescence microplate reader using excitation in the range of 530-560 nm and emission detection at ˜590 nm. Ec50s were determined with GraphPad Prism. Ki is calculated based on Cheng-Prusoff equation.

Sequence of human FOLH1 (Q04609 whole entry): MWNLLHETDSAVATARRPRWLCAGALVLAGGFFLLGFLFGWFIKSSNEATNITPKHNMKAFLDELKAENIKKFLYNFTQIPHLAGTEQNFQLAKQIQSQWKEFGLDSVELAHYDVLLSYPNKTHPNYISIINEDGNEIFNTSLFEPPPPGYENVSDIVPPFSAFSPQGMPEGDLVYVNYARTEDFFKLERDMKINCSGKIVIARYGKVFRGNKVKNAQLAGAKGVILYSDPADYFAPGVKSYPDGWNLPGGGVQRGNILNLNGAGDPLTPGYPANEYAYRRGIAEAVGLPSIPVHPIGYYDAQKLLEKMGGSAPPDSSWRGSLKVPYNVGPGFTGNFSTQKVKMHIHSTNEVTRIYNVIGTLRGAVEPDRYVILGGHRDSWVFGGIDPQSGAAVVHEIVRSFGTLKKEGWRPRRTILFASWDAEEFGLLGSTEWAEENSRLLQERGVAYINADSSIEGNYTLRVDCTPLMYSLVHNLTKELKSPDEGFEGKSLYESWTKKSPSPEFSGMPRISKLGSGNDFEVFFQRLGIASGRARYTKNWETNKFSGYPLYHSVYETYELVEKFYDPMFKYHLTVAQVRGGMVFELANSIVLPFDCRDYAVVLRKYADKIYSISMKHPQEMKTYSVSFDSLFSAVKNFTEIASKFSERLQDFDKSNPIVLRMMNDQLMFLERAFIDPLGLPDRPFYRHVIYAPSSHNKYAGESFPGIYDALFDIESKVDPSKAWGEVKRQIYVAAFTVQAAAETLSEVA
Sequence of Recombinant Human PSMA/FOLH1 Protein (Q04609 whole entry): as above

The term koff denotes a measure of how fast the partners let go of each other. Higher therefore signals a short-lived complex. One may read the Kd as the free concentration of one partner at which half of the binding sites on the other are occupied at equilibrium, for simple one-to-one binding. A lower Kd goes with higher affinity. In general, IC50 refers to the concentration at which inhibition is half-maximal. As a reminder, the Ki is the equilibrium dissociation constant of an inhibitor or competing ligand from its target. On to `CC(=O)NCCOCCOCCOCCC(=O)N1C[C@H](NC(=O)COc2cc(C#N)cc(C#N)c2)C[C@H]1C(=O)N[C@@H](Cc1ccc2ccccc2c1)C(=O)NCCCC[C@H](NC(=O)N[C@@H](CCC(=O)O)C(=O)O)C(=O)O` [Compound 79], for which, on human FOLH1, the Kon is given as 137000 1.ms, the dissociation rate constant (koff) amounted to 0.000515 s⁻¹ and binding was put at a Kd of 3.76 nM. Moreover, in experiment [1], the IC50 is 7.79 nM and the Ki is 0.0557 nM.

As to `CC(=O)NCCOCCOCCOCCC(=O)N[C@@H](Cc1ccc(C(=O)O)cc1)C(=O)NCCCC(=O)N[C@@H](Cc1ccc2ccccc2c1)C(=O)NCCCC[C@H](NC(=O)N[C@@H](CCC(=O)O)C(=O)O)C(=O)O` [Compound 97], on human FOLH1, the Kon was 90100 1.ms, the koff was 0.000328 s⁻¹ and the Kd worked out at 3.64 nM. For the same molecule, in experiment [1], the IC50 was 10.8 nM and the Ki is 0.077 nM.

With `CC(=O)NCCOCCOCCOCCC(=O)NC[C@H]1CC[C@H](C(=O)N[C@@H](Cc2ccc3ccccc3c2)C(=O)NCCCC[C@H](NC(=O)N[C@@H](Cc2ccco2)C(=O)O)C(=O)O)CC1` [Compound 49], binding at human FOLH1 was put at a Kd of 3080 nM. Further, in experiment [1], the IC50 is 16500 nM and the Ki is 118 nM.

For the molecule `CC(=O)NCCOCCOCCOCCC(=O)N[C@@H](Cc1cccc(C(=O)O)c1)C(=O)NCCC(=O)N[C@@H](Cc1ccc2ccccc2c1)C(=O)NCCCC[C@H](NC(=O)N[C@@H](CCC(=O)O)C(=O)O)C(=O)O` [Compound 93], at human FOLH1, the Kon is on record as 149000 1.ms, the koff amounted to 0.000258 s⁻¹ and the Kd turned out to be 1.73 nM. Moreover, in experiment [1], the IC50 came out at 9.6 nM and the Ki is 0.0686 nM.

For the molecule `CC(=O)NCCOCCOCCOCCC(=O)NC[C@H]1CC[C@H](C(=O)N[C@H](Cc2c[nH]c3ccccc23)C(=O)NCCCC[C@H](NC(=O)N[C@@H](CCC(=O)O)C(=O)O)C(=O)O)CC1` [Compound 5], at human FOLH1, the Kon was 195000 1.ms, the koff came to 0.000543 s⁻¹ and binding was put at a Kd of 2.78 nM. Further, in experiment [1], the IC50 came out at 81.7 nM and the Ki is 0.584 nM.

As to `C=CC[C@H](NC(=O)CCOCCOCCOCCNC(C)=O)C(=O)NC[C@H]1CC[C@H](C(=O)N[C@@H](Cc2ccc3ccccc3c2)C(=O)NCCCC[C@H](NC(=O)N[C@@H](CCC(=O)O)C(=O)O)C(=O)O)CC1` [Compound 41], at human FOLH1, the Kon was 102000 1.ms, the koff came to 0.000199 s⁻¹ and binding was put at a Kd of 1.95 nM. In experiment [1], the IC50 was found to be 88.1 nM and the Ki was 0.63 nM.

Take `CC(=O)NCCOCCOCCOCCC(=O)NC[C@H]1CC[C@H](C(=O)N[C@@H](Cc2ccc(C(=O)O)cc2)C(=O)NCCCC[C@H](NC(=O)N[C@@H](CCC(=O)O)C(=O)O)C(=O)O)CC1` [Compound 21]: on human FOLH1, the Kon is reported as 183000 1.ms, the koff was 0.00194 s⁻¹ and the Kd worked out at 10.6 nM. Also, in experiment [1], the IC50 was determined as 201 nM and the Ki is 1.44 nM.

As to `CC(=O)NCCOCCOCCOCCC(=O)NC[C@H]1CC[C@H](C(=O)N[C@@H](Cc2c[nH]c3ccc(F)cc23)C(=O)NCCCC[C@H](NC(=O)N[C@@H](CCC(=O)O)C(=O)O)C(=O)O)CC1` [Compound 12], on human FOLH1, the Kon is 250000 1.ms, the koff is 0.000142 s⁻¹ and the Kd was 0.568 nM. In experiment [1], the IC50 came to 41.5 nM and the inhibition constant (Ki) is 0.297 nM.

Regarding `CC(=O)NCCOCCOCCOCCC(=O)N[C@@H]1C[C@@H](C(=O)NCC(=O)N[C@@H](Cc2ccc3ccccc3c2)C(=O)NCCCC[C@H](NC(=O)N[C@@H](CCC(=O)O)C(=O)O)C(=O)O)N(C(=O)COc2cc(C#N)cc(C#N)c2)C1` [Compound 90], at human FOLH1, the Kon was 183000 1.ms, the koff is 0.000232 s⁻¹ and the Kd stood at 1.27 nM. Further, in experiment [1], the 50% inhibitory concentration (IC50) was determined as 87.6 nM and the Ki was 0.626 nM.
